This is an account of results in US20120288509A1, “ANALYSIS OF METHYLATED NUCLEIC ACID” (priority 2004, published 2012).

The subject of the assay is SW48 cells. The assay can be described thus: 5-Aza-dC treatment and RT-PCR: reactivation of silenced genes in SW48 cells. The assay is classed as cell-based. Conditions: SW48 colon cancer cells, 5 μM 5-Aza-dC for 4 days, subset of candidate genes, versus untreated cells. The source says: FIG. 3: Validation of novel targets for aberrant methylation in colon cancer. A. Primers for PCR were designed for positive clones identified in the microarray analysis as hypermethylated in SW48 cells. DNA methylation was controlled by Single-gene PCR on enriched methylated samples prepared from WI38 primary fibroblasts and SW48 colon cancer cells according to the method described above. IN=input genomic DNA, M=enriched methylated DNA. As a separate control the inventors analyzed samples prepared from matched normal colon (N) and colon tumor (T) from three patients. MLH1 and RASSF1A have previously been described to be aberrantly methylated in SW48 cells and in some colon tumors. The imprinted H19 ICR sequence serves as a positive control for methylation. B. Control of methylation status by methylation-sensitive restriction. Genomic DNA was either digested with the methylation-sensitive HpaII enzyme or undigested and used as a PCR template with primers spanning a HpaII-containing PCR fragments in three randomly selected positive clones (top) and negative clones (bottom). The number of HpaII sites within the PCR amplicon is indicated in parenthesis. Presence of a PCR product after HpaII digest reflects DNA methylation in the sample and in each case confirms the above described enrichment analysis. C. Reactivation of silenced genes in SW48 cells by 5-Aza-dC treatment. […]

On to `Nc1ncn([C@H]2C[C@H](O)[C@@H](CO)O2)c(=O)n1` [5-Aza-dC], for which the “transcription of silenced (methylated) genes by RT-PCR after treatment with the demethylating agent” value was “derepression”.
